Values joined by “and” are separate entries in the source; they are usually repeats but may differ in a detail not shown here. Equal values may be shown once.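 All cell lines were grown in 96-well plates and treated with compound for 48 hours. GI50 is the concentration that inhibits growth by half. At the TGI there is no net growth.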

Among the test systems are DLD-1 colon; DMS 114 small cell lung; DMS 273 small cell lung; HOP-18 NSCLC; KM20L2 colon; M19-MEL melanoma; P388 leukemia; P388/ADR leukemia; SN12K1 renal; XF 498 CNS; RXF-631 renal; LXFL 529 NSCLC.
Common to all, as to experiment: NCI tumour cell line growth inhibition, 48 h

With `CCN(CC)CCCC(C)Nc1c2ccc(Cl)cc2nc2cc(Cl)ccc12` (stereo not drawn), the TGI was found to be 9.38 µM with DLD-1 colon; 16.6 µM with DMS 114 small cell lung; 10.3 µM in the experiment on DMS 273 small cell lung; 18.1 µM in the experiment on HOP-18 NSCLC; 11.6 µM in the experiment on KM20L2 colon; 9.97 µM in the experiment with M19-MEL melanoma. Also, the TGI was 3.58 µM with P388 leukemia, 3.48 µM in the experiment on P388/ADR leukemia, 8.47 µM with SN12K1 renal and 9.64 µM with XF 498 CNS.

`CC[C@@]1(O)C(=O)OCc2c1cc1n(c2=O)Cc2cc3c(CN(C)C)c(O)ccc3nc2-1`: the GI50 in the experiment on DMS 114 small cell lung was < 0.0351 µM; with DMS 273 small cell lung, 0.0372 µM; in the experiment on HOP-18 NSCLC it was 0.132 µM; in the experiment on KM20L2 colon it was 2.22 µM; in the experiment on M19-MEL melanoma it was 0.603 µM; in the experiment on XF 498 CNS, 0.585 µM. The TGI was 0.691 µM and 0.162 µM in the experiment on DMS 114 small cell lung; 1.09 µM and 0.609 µM in the experiment on DMS 273 small cell lung; 89 µM in the experiment with HOP-18 NSCLC; 8.27 µM in the experiment on KM20L2 colon; 5.17 µM and 1.36 µM with M19-MEL melanoma; 2.66 µM with P388 leukemia. The TGI in the experiment with P388/ADR leukemia was found to be 2.77 µM; in the experiment on RXF-631 renal, 30.1 µM; with SN12K1 renal it was 1.19 µM.

Consider `OC(c1ccccc1)C1CC2C=CC1C2` (stereo not drawn), for which the TGI with DLD-1 colon, in the experiment on DMS 114 small cell lung, in the experiment with DMS 273 small cell lung, in the experiment with LXFL 529 NSCLC, in the experiment with M19-MEL melanoma and with RXF-631 renal was > 100 µM each time. Further, in the experiment on XF 498 CNS, the TGI is > 100 µM.

For `CC1(CO)C(O)CCC2(C)C1C(O)CC1CC3CC12CCC3(O)CO` (stereo not drawn), the TGI with DLD-1 colon is > 225 µM; in the experiment on DMS 114 small cell lung, > 225 µM; in the experiment on DMS 273 small cell lung it was > 199 µM; with HOP-18 NSCLC, > 225 µM; in the experiment with KM20L2 colon, > 225 µM; with M19-MEL melanoma it was > 153 µM. Moreover, the TGI is > 22.5 µM in the experiment on P388 leukemia, > 225 µM in the experiment with P388/ADR leukemia, > 225 µM in the experiment with SN12K1 renal and > 225 µM with XF 498 CNS.

With `C1=Nc2ccccc2Cn2nncc21`, the TGI with DLD-1 colon, in the experiment on HOP-18 NSCLC, in the experiment on KM20L2 colon, with LXFL 529 NSCLC, in the experiment with M19-MEL melanoma and in the experiment with XF 498 CNS was > 100 µM throughout.

The record behind these values is PubChem BioAssay (NCI).
